Where two headings read alike, the source gives them in different places.
What was measured:
Assay type in all cases: cell-based
SNB-19 = assay: NCI in vitro cytotoxicity (SRB, 48 h), CNS panel; settings: Homo sapiens; SNB-19, CNS; 48 h exposure
K-562 = assay: NCI in vitro cytotoxicity (SRB, 48 h), Leukemia panel; settings: Homo sapiens, K562; K-562, Leukemia; 48 h exposure
SW-620 = assay: NCI in vitro cytotoxicity (SRB, 48 h), Colon panel; settings: Homo sapiens; SW-620, Colon; 48 h exposure
M14 = assay: NCI in vitro cytotoxicity (SRB, 48 h), Melanoma panel; settings: Homo sapiens, 48 h exposure
NCI-H460 = assay: NCI in vitro cytotoxicity (SRB, 48 h), Non-small cell lung panel; settings: Homo sapiens, 48 h exposure
OVCAR-5 = assay: NCI in vitro cytotoxicity (SRB, 48 h), Ovarian panel; settings: Homo sapiens; OVCAR-5, Ovarian; 48 h exposure
SK-MEL-5 = assay: NCI in vitro cytotoxicity (SRB, 48 h), Melanoma panel; settings: Homo sapiens; SK-MEL-5, Melanoma; 48 h exposure
EKVX = assay: NCI in vitro cytotoxicity (SRB, 48 h), Non-small cell lung panel; settings: Homo sapiens, 48 h exposure
HOP-62 = assay: as above; settings: Homo sapiens; HOP-62, Non-small cell lung; 48 h exposure
SK-MEL-2 = assay: NCI in vitro cytotoxicity (SRB, 48 h), Melanoma panel; settings: Homo sapiens; SK-MEL-2, Melanoma; 48 h exposure
[1] = system: Prostate cancer cell lines; assay: NCI in vitro cytotoxicity, whole panel; settings: Homo sapiens
TK-10 = assay: NCI in vitro cytotoxicity (SRB, 48 h), Renal panel; settings: Homo sapiens; TK-10, Renal; 48 h exposure
OVCAR-3 = assay: NCI in vitro cytotoxicity (SRB, 48 h), Ovarian panel; settings: Homo sapiens; OVCAR-3, Ovarian; 48 h exposure
HCC-2998 = assay: NCI in vitro cytotoxicity (SRB, 48 h), Colon panel; settings: Homo sapiens; HCC-2998, Colon; 48 h exposure
786-0 = assay: NCI in vitro cytotoxicity (SRB, 48 h), Renal panel; settings: Homo sapiens; 786-0, Renal; 48 h exposure
SNB-75 = assay: NCI in vitro cytotoxicity (SRB, 48 h), CNS panel; settings: Homo sapiens; SNB-75, CNS; 48 h exposure
RXF 393 = assay: NCI in vitro cytotoxicity (SRB, 48 h), Renal panel; settings: Homo sapiens; RXF 393, Renal; 48 h exposure
NCI/ADR-RES = assay: NCI in vitro cytotoxicity (SRB, 48 h), Ovarian panel; settings: Homo sapiens, 48 h exposure
A498 = assay: NCI in vitro cytotoxicity (SRB, 48 h), Renal panel; settings: Homo sapiens, 48 h exposure
SR = assay: NCI in vitro cytotoxicity (SRB, 48 h), Leukemia panel; settings: Homo sapiens
HL-60(TB) = assay: as above; settings: Homo sapiens, 48 h exposure
HS 578T = assay: NCI in vitro cytotoxicity (SRB, 48 h), Breast panel; settings: Homo sapiens, 48 h exposure
PC-3 = assay: NCI in vitro cytotoxicity (SRB, 48 h), Prostate panel; settings: Homo sapiens; PC-3, Prostate; 48 h exposure
[2] = system: Non-small-cell lung cancer cell lines; assay: NCI in vitro cytotoxicity, whole panel; settings: Homo sapiens
COLO 205 = assay: NCI in vitro cytotoxicity (SRB, 48 h), Colon panel; settings: Homo sapiens; COLO 205, Colon; 48 h exposure
OVCAR-8 = assay: NCI in vitro cytotoxicity (SRB, 48 h), Ovarian panel; settings: Homo sapiens; OVCAR-8, Ovarian; 48 h exposure
NCI-H23 = assay: NCI in vitro cytotoxicity (SRB, 48 h), Non-small cell lung panel; settings: Homo sapiens, 48 h exposure
T-47D = assay: NCI in vitro cytotoxicity (SRB, 48 h), Breast panel; settings: Homo sapiens, T47D, 48 h exposure
ACHN = assay: NCI in vitro cytotoxicity (SRB, 48 h), Renal panel; settings: Homo sapiens, 48 h exposure
Renal cancer cell lines = assay: NCI in vitro cytotoxicity, whole panel; settings: Homo sapiens
Melanoma cell lines = assay: NCI in vitro cytotoxicity, whole panel; settings: Homo sapiens
CNS cancer cell lines = assay: NCI in vitro cytotoxicity, whole panel; settings: Homo sapiens
SK-OV-3 = assay: NCI in vitro cytotoxicity (SRB, 48 h), Ovarian panel; settings: Homo sapiens; SK-OV-3, Ovarian; 48 h exposure
DU-145 = assay: NCI in vitro cytotoxicity (SRB, 48 h), Prostate panel; settings: Homo sapiens; DU-145, Prostate; 48 h exposure
Colon cancer cell lines = assay: NCI in vitro cytotoxicity, whole panel; settings: Homo sapiens

## COc1ccc(C(=O)/C=C/c2c(C(F)(F)F)nc3sccn23)cc1OC [Compound 8f, (E)-1-(3,4-dimethoxyphenyl)-3-(6-(trifluoromethyl)imidazo[2,1-b]thiazol-5-yl) prop-2-en-1-one]
SNB-19
  GI50: 4.25 µM
K-562
  GI50: 2.25 µM
SW-620
  GI50: 1.49 µM
M14
  GI50: 2.67 µM
NCI-H460
  GI50: 1.94 µM
OVCAR-5
  GI50: 4.18 µM
SK-MEL-5
  GI50: 4.2 µM
EKVX
  GI50: 4.43 µM
HOP-62
  GI50: 6 µM
SK-MEL-2
  GI50: 4.08 µM
[1]; Prostate cell, exposure period of at least 48 hrs, read-out: GI50, range over prostate cell lines
  GI50: 1.64 to 5.39 µM
[1]; Prostate, average of the panel's cell lines, read-out: Log10 GI50 (converted)
  GI50: 2.95 µM
[1]; Prostate, average of the panel's cell lines, read-out: Log10 LC50 (converted)
  LC50: ≥ 100 µM
TK-10
  GI50: 8.76 µM
OVCAR-3
  GI50: 2.12 µM
HCC-2998
  GI50: 5.07 µM
786-0
  GI50: 5.67 µM
SNB-75
  GI50: 6.87 µM
RXF 393
  GI50: 2.51 µM
NCI/ADR-RES
  GI50: 1.88 µM
A498
  GI50: 7.58 µM
SR
  GI50: 0.49 µM
SR; 48 h exposure
  GI50: 0.49 µM
HL-60(TB)
  GI50: 1 µM
HS 578T
  GI50: 2.51 µM
PC-3
  GI50: 5.39 µM
[2]; Non-small-cell lung, average of six to eight cell lines, read-out: Log10 GI50 (converted)
  GI50: 3.98 µM
[2]; Non-small-cell lung, average of six to eight cell lines, read-out: Log10 LC50 (converted)
  CC50: ≥ 100 µM
[2]; exposure period of at least 48 hrs, read-out: GI50, range over lung cell lines
  GI50: 1.94 to 6.95 µM
COLO 205
  GI50: 4.56 µM
OVCAR-8
  GI50: 2.4 µM
NCI-H23
  GI50: 2.78 µM
T-47D
  GI50: 2.9 µM
ACHN
  GI50: 5.1 µM
Renal cancer cell lines; Renal, average of six to eight cell lines, read-out: Log10 GI50 (converted)
  GI50: 4.9 µM
Renal cancer cell lines; Renal, average of six to eight cell lines, read-out: Log10 LC50 (converted)
  CC50: ≥ 100 µM
Renal cancer cell lines; exposure period of at least 48 hrs, read-out: GI50, range over renal cell lines
  GI50: 2.46 to 8.76 µM
Melanoma cell lines; Melanoma, average of six to eight cell lines, read-out: Log10 GI50 (converted)
  GI50: 3.63 µM
Melanoma cell lines; Melanoma, average of six to eight cell lines, read-out: Log10 LC50 (converted)
  CC50: ≥ 100 µM
Melanoma cell lines; exposure period of at least 48 hrs, read-out: GI50, range over melanoma cell lines
  GI50: 0.6 to 8.48 µM
CNS cancer cell lines; CNS cell, exposure period of at least 48 hrs, read-out: GI50, range over CNS cell lines
  GI50: 1.87 to 6.87 µM
CNS cancer cell lines; CNS, average of six to eight cell lines, read-out: Log10 GI50 (converted)
  GI50: 3.39 µM
CNS cancer cell lines; CNS, average of six to eight cell lines, read-out: Log10 LC50 (converted)
  CC50: ≥ 100 µM
SK-OV-3
  GI50: 3.41 µM
DU-145
  GI50: 1.64 µM
Colon cancer cell lines; Colon, average of six to eight cell lines, read-out: Log10 GI50 (converted)
  GI50: 2.45 µM
Colon cancer cell lines; Colon, average of six to eight cell lines, read-out: Log10 LC50 (converted)
  CC50: ≥ 100 µM
Colon cancer cell lines; exposure period of at least 48 hrs, read-out: GI50, range over colon cell lines
  GI50: 1.4 to 4.56 µM

From patent US8916711B2, “Imidazothiazole-chalcone derivatives as potential anticancer agents and process for the preparation thereof” (Council of Scientific and Industrial Research, priority 2009, dated 2014)
